Assays:
[1] = biological target: T1, N6-adenine DNA methyltransferase M•TaqI (Thermus aquaticus, UniProt P14385); test: Enzyme reaction: M•TaqI-catalyzed coupling of cofactor with duplex oligodeoxynucleotide 3•4, followed by anion exchange chromatography; type: biochemical; conditions: duplex 3•4 10 μM, M•TaqI 10 μM, pH 6.0, 37°C
T1 construct: made in house
Experimental: The DNA methyltransferase M•TaqI free of cofactor was prepared as described before (B. Holz, S. Klimasauskas, S. Serva, E. Weinhold, Nucleic Acids Res. 1998, 26, 1076-1083). The enzyme-catalyzed reaction was carried out in a mixture (500 μl) of M•TaqI (5 nmol, 10 μM), duplex oligodeoxynucleotide 3.4 (5 nmol, 10 μM), compound 2 (500 nmol, 1 mM), Tris acetate (20 mM, pH 6,0), potassium acetate (50 mM), magnesium acetate (10 mM) and Triton X-100 (0.01%) at 37°C. The progress of the reaction was monitored by anion exchange chromatography. Aliquots (50 μl) of the reaction mixture were withdrawn after different incubation times, mixed with an urea solution (100 μl, 6 M) and injected onto an anion exchange column (Poros 10 HQ, 10 μm, 4.6×100 mm, PerSeptive Biosystems, Germany). Compounds were eluted with aqueous potassium chloride (0.5 M for 5 min, followed by a linear gradient to 1 M in 30 min, 4 ml/min) in Tris chloride buffer (10 mM, pH 7.6).
The enzyme-catalyzed reaction was carried out in a mixture (500 μl) of cofactor free M-Taql (5 nmol, 10 μM), duplex oligodeoxynucleotide 3•4 (5 nmol, 10 μM), compound 9 (10 nmol, 20 μM), Tris acetate (20 mM, pH 6.0), potassium acetate (50 mM), magnesium acetate (10 mM) and Triton X-100 (0,01%) at 37° C. The progress of the reaction was monitored by anion exchange chromatography (Poros 10 HQ, 10 μm, 4,6×10 mm, PerSeptive Biosystems, Germany). Compounds were eluted with aqueous potassium chloride (0.2 M for 5 min, followed by a linear gradient to 0.5 M in 5 min and to 1 M in 30 min) in Tris chloride buffer (10 mM, pH 7.0). Complete conversion to a new product (containing DNA and protein) with a retention time of 7.9 min was observed after 15 h. […] Then, a solution (4 μl) of proteinase K (31 mg/ml), Tris chloride (50 mM, pH 8.0) and calcium chloride (1 mM) was added, and the reaction mixture was incubated at 37° C. for 1 h. The proteolytic fragmentation was monitored by anion exchange chromatography as described above. […]

[2] = biological target: T2, C5-cytosine DNA methyltransferase M•HhaI (Haemophilus parahaemolyticus, UniProt P05102); test: Enzyme reaction: M•HhaI-catalyzed coupling of cofactor with duplex oligodeoxynucleotide 6•7, followed by anion exchange chromatography; type: biochemical, Haemophilus haemolyticus; conditions: duplex 6•7 10 μM, M•HhaI 10 μM, compound 2 1 mM, pH 7.4, 25°C
T2 construct: made in house
T2 sequence (P05102 1-327): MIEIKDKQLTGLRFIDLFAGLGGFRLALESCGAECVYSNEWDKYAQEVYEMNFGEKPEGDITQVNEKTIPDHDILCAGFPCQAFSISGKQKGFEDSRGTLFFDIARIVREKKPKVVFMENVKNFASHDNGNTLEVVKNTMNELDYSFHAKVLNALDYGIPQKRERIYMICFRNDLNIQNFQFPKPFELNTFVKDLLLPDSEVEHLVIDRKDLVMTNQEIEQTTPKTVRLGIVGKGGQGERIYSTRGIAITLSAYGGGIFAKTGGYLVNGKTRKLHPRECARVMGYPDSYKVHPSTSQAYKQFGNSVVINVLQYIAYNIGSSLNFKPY
Experimental: The DNA methyltransferase M•HhaI free of cofactor was prepared as described before (B. Holz, S. Klimasauskas, S. Serva, E. Weinhold, Nucleic Acids Res. 1998, 26, 1076-1083). The enzyme-catalyzed reaction was carried out in a mixture (500 μl) of M•HhaI (5 nmol, 10 μM), duplex oligodeoxynucleotide 6•7 (5 nmol, 10 μM), compound 2 (500 nmol, 1 mM), Tris chloride (10 mM, pH 7.4), sodium chloride (50 mM), EDTA (0,5 mM) and Triton X-100 (0.01%) at 25° C. The progress of the reaction was monitored by anion exchange chromatography. Aliquots (50 μl) of the reaction mixture were withdrawn after different incubation times, and injected onto an anion exchange column (Poros 10 HQ, 10 μm, 4.6×100 mm, PerSeptive Biosystems, Germany). Compounds were eluted with aqueous potassium chloride (0 M for 5 min, followed by a linear gradient to 0.5 M in 5 min and to 1 M in 30 min, 4 ml/min) in Tris chloride buffer (20 mM, pH. 7.6).

[3] = biological target: T2, C5-cytosine DNA methyltransferase M•HhaI; test: Fluorescent labeling of plasmid DNA (pUC19) using M•HhaI; type: biochemical, Haemophilus haemolyticus; conditions: M•HhaI 730 nM, pUC19 40 nM, compound 9 20 μM, pH 6.85, 37°C, 20 h
Experimental: The enzyme-catalyzed labeling reaction was carried out in a mixture (100 μl) of M-HhaI (730 nM), pUC19 DNA (40 nM, 17 recognition sites for M•HhaI), compound 9 (20 μM), Tris chloride (10 mM, pH 6.85), sodium chloride (50 mM), EDTA (0,5 mM) and P-mercaptoethanol (2 mM) at 37° C. A parallel control experiment was performed without M•HhaI. Aliquots of both incubations after 20 h reaction time were analyzed by anion exchange chromatography as described above (see example 2, 3.1). The obtained chromatograms are shown in FIG. 8 (A: UV detection at 260 nm; B: fluorescence detection).

[4] = biological target: T1, N6-adenine DNA methyltransferase M•TaqI; test: Fluorescent labeling of plasmid DNA (pUC19) using M•TaqI; type: biochemical; conditions: M•TaqI 133 nM, pUC19 28 nM, compound 9 20 μM
Experimental: The enzyme-catalyzed labeling reaction was carried out in a mixture (500 μl) of cofactor free M•TaqI (133 nM), pUC19 DNA (28 nM, 4 recognition sites for M•TaqI), compound 9 (20 μM), Tris acetate (20 mM, pH 6,0), potassium acetate (50 mM), magnesium, acetate (10 mM) and Triton X-100 (0,01%) at 65° C. The progress of the reaction was monitored by anion exchange chromatography (NUCLEOGEN DEAE 4000-7, 7 μm, 125×6,2 mm, Machery-Nagel, Düren, Germany). Compounds were eluted with aqueous potassium chloride (0.2 M for 5 min followed by a linear gradient to 1 M in 30 min) in Tris chloride buffer (10 mM, pH 7.0) containing acetonitrile (20%). The chromatograms of the anion exchange chromatography after different incubation times are shown in FIG. 6 (A: UV detection at 260 nm; B: fluorescence detection). The delay between the observed UV absorption and the fluorescence is due to a spatial separation of the UV detector and the fluorescence detector. The labeling reaction yielding fluorescent pUC19 was completed after 8 h.

T1 sequence (P14385 whole entry): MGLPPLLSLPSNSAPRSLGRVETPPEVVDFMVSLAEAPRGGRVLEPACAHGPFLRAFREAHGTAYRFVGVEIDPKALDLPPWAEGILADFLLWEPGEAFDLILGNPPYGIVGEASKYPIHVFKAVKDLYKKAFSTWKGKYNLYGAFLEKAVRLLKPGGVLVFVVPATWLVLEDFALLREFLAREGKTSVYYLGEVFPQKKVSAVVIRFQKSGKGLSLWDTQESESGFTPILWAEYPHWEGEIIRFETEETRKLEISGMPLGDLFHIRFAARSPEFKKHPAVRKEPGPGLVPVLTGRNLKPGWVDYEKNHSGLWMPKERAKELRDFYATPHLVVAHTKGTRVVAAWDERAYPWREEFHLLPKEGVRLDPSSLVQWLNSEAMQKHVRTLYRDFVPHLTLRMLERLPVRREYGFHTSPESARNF

SMILES: Nc1ncnc2c1ncn2[C@@H]1O[C@H](CN2CC2)[C@@H](O)[C@H]1O [Compound 2, N-Adenosylaziridine]
- M•TaqI-catalyzed coupling of the cofactor with DNA ([1]; compound 2 1 mM): quantitative, sequence- and base-specific
- M•HhaI-catalyzed coupling of the cofactor to duplex oligodeoxynucleotide 6•7 [2]: quantitative

SMILES: CN(C)c1cccc2c(S(=O)(=O)NCCCCNc3nc4c(N)ncnc4n3[C@@H]3O[C@H](CN4CC4)C(O)[C@@H]3O)cccc12 (stereo partly shown) [Compound 9, 8-Amino[1″-(N″-dansyl)-4″-aminobutyl]-5′-(1-aziridinyl)-5′-deoxy adenosine]
- cofactor function in M•HhaI-catalyzed fluorescent labeling of pUC19 [3]: function as a cofactor for M•HhaI
- fluorescence signal of pUC19 in anion exchange chromatography after labeling with M•TaqI ([4]; 65°C, different incubation times): increase of the fluorescence signal with the incubation time
- time to completion of the labeling reaction yielding fluorescent pUC19 ([4]; pH 6.0, 65°C): 8 h
- coupling reaction of the fluorescent cofactor with DNA catalyzed by M•TaqI ([1]; compound 9 20 μM): quantitative and base-specific
- time to complete conversion of duplex 3•4 to new product (containing DNA and protein) ([1]; compound 9 20 μM): 15 h
